Results from US20110077230A1, “COPPER ORGANOCOMPLEXES, USE THEREOF AS ANTITUMOR MEANS AND FOR PROTECTING HEALTHY TISSUE FROM IONIZING RADIATION” (CHARITE - UNIVERSITATSMEDIZIN BERLIN, priority 2008, published 2011).

How the values were obtained:
melanoma B 16 = test: B 16 melanoma in mice, intraabdominal administration; assay type: in vivo, mice of the line C 57Bl; details: for Average volume of tumor / Average weight of tumor: days 3, 5, 7, 9
Method: The melanoma B 16 was implanted in 20 mice of the line C 57Bl by subcutaneous injection into the right thigh. The animals were divided into four groups of five mice each. Group I received complex A at a dosage of 7 mg/kg, dissolved in DMSO, which was administered intraabdominally in a 4% suspension in physiological saline. Each administration was performed 3, 5, 7 and 9 days after trans-plantation of the tumor.
Group II was treated as group I, but using a dosage of 5 mg/kg.
Group III was treated as group I, but received 5 mg/kg of melphalan hydrochloride instead of complex A.
Group IV remained untreated.

[1] = Solubility and stability of the complexes

## Copper-sarcolysine hydrochloride complex [complex A]
Melanoma B 16; 5 mg/kg intraabdominally
  Apoptotic index AI: 3.68 ‰
  Bone marrow index MI BM: 3.975 ‰
  Inhibition of tumor growth, mass percent: mass percent 84.44%
  Inhibition of tumor growth, volume percent: volume percent 80.00%
  Mitotic index of tumor cells MI: 2.175 ‰
  Average volume of tumor: 0.436 cm^3
  Average weight of tumor: 202.25 mg
Melanoma B 16; 7 mg/kg intraabdominally
  Apoptotic index AI: 4.25 ‰
  Bone marrow index MI BM: 3.575 ‰
  Inhibition of tumor growth, mass percent: mass percent 89.5%
  Inhibition of tumor growth, volume percent: volume percent 98.67%
  Mitotic index of tumor cells MI: 1.3. ‰
  Average volume of tumor: 0.029 cm^3
  Average weight of tumor: 136.8 mg
[1]; dimethyl sulfoxide (DMSO)
  solubility in DMSO: dissolves
[1]; most / many organic solvents
  solubility in organic solvents: insoluble
[1]; room temperature, even when exposed to oxygen
  stability at room temperature: stable
[1]; water
  solubility in water: insoluble
